Experimental data published in patent publication US10051861B2, “N-arylamidine-substituted trifluoroethyl sulfide derivatives as acaricides and insecticides” (BAYER CROPSCIENCE AG, priority 2011, dated 2018).
Like-named read-outs stand apart in the source and are kept apart here. Marks after values point to notes of the source that are not given here.

Tests used:
[1] = logP by HPLC on reversed-phase columns (C 18), EEC Directive 79/831 Annex V.A8; type: physicochemical; settings: for logP(HCOOH): pH 2.7; for logP(neutral): pH 7.8; for chromatographic logP: reversed-phase C18 HPLC column
Experimental: Calibration is carried out using unbranched alkan-2-ones (having from 3 to 16 carbon atoms) with known log P values (the log P values are determined by the retention times using linear interpolation between two successive alkanones).

[2] = tested on: greenhouse red spider mite (Tetranychus urticae); assay: Tetranychus test, OP-resistant (TETRUR spray treatment); type: in vivo; settings: application rate 500 g/ha, after 6 days
Experimental: (§1) After 6 days, the effect in % is determined.

[3] = tested on: cattle ticks (Boophilus microplus); assay: Boophilus microplus injection test (BOOPMI Inj); type: in vivo; settings: application rate 20 μg/animal, injection, after 7 days; for pest or weed control at 0.02 mg: Rhipicephalus microplus, 168 h, read-out: efficacy (laying of fertile eggs)
Experimental: (§2) Solvent: dimethyl sulfoxide
1 μl of the active compound solution is injected into the abdomen of 5 engorged adult female cattle ticks (Boophilus microplus). The animals are transferred into dishes and kept in a climate-controlled room.
The activity is assessed after 7 days by laying of fertile eggs. Eggs whose fertility is not visible from the outside are stored in a climate-controlled cabinet until the larvae hatch after about 42 days. An efficacy of 100% means that none of the ticks has laid any fertile eggs; 0% means that all eggs are fertile.

[4] = tested on: greenhouse red spider mite (Tetranychus urticae); assay: Tetranychus urticae spray test, OP-resistant (TETRUR), bean leaf disks; type: in vivo; settings: application rate 500 g/ha, after 6 days; for pest or weed control at 500 g/ha: Tetranychus urticae, foliar, 144 h, read-out: efficacy (spider mites killed)
Experimental: as §1

Boophilus microplus = Boophilus microplus test (BOOPMI injection); type: in vivo; parameters: dose or concentration left out as unconfirmed; settings: after 7 days
Experimental: as §2
The solution of active compound is injected into the abdomen (Boophilus microplus), and the animals are transferred into dishes and kept in a climatized room. The activity is assessed by laying of fertile eggs.
100% means that none of the ticks has laid any fertile eggs.

[5] = tested on: larvae of the mustard beetle (Phaedon cochleariae); assay: Phaedon test (PHAECO spray treatment); settings: application rate 500 g/ha, after 7 days
[6] = tested on: larvae of the mustard beetle (Phaedon cochleariae); assay: Phaedon cochleariae spray test (PHAECO); settings: for effect (beetle larvae killed): application rate 500 g/ha, after 7 days
[7] = tested on: green peach aphid (Myzus persicae); assay: Myzus persicae spray test (MYZUPE); type: in vivo; settings: after 6 days
Experimental: as §1

[8] = pH 2.7, [a] LC-MS, acidic range, pH 2.7, 0.1% aqueous formic acid/acetonitrile, read-out: logP(HCOOH)
[9] = pH 7.8, [b] LC-MS, neutral range, pH 7.8, 0.001 molar aqueous ammonium bicarbonate/acetonitrile, read-out: logP(neutral)

SMILES	logP(HCOOH) [1]	logP(neutral) [1]	efficacy (spider mites killed) [2] [%]	efficacy (spider mites killed) [4] [%]	efficacy (beetle larvae killed) [5] [%]	effect (beetle larvae killed) [6] [%]	further results
Cc1cc(C)c([S+]([O-])CC(F)(F)F)cc1/N=C(/N)C(F)(F)F (stereo not shown) [Ib-12]	3.36	3.3	100	100	–	–	efficacy (laying of fertile eggs) [3]: 100%
Cc1cc(F)c([S+]([O-])CC(F)(F)F)cc1N=C(N(C)C)C(F)(F)F (stereo not shown) [Ib-15]	2.17	2.14	100	100	–	–	–
CCCNC(=Nc1cc([S+]([O-])CC(F)(F)F)c(C)cc1F)C(F)(F)F (stereo not shown) [Ib-06]	3.24	3.17	100	100	–	–	–
Cc1cc(C)c([S+]([O-])CC(F)(F)F)cc1N=C(N(C)C)C(F)(F)F (stereo not shown) [Ib-09]	3.23	3.19	100	100	–	–	–
CNC(=Nc1cc([S+]([O-])CC(F)(F)F)c(F)cc1C)C(F)(F)F (stereo not shown) [Ib-05]	2.86	2.79	80	80	–	–	–
Cc1cc(F)c(N=C(NCc2ccccn2)C(F)(F)F)cc1SCC(F)(F)F [Ia-04]	3.68^[a]	–	–	100	100	100	efficacy (laying of fertile eggs) (Boophilus microplus): 80%; efficacy (laying of fertile eggs) [3]: 80%
Cc1cc(F)c(/N=C(/N(C)C)C(F)(F)F)cc1SCC(F)(F)F [Ia-01, 2,2,2-Trifluoro-N′-{2-fluoro-4-methyl-5-[(2,2,2-trifluoroethyl)sulfanyl]phenyl}-N,N-dimethylethanimidamide]	–	–	–	–	–	–	chromatographic logP [1, 8]: 4.48; chromatographic logP [1, 9]: 4.5; efficacy (laying of fertile eggs) (Boophilus microplus): 100%; pest or weed control at 0.02 mg [3]: 100%; pest or weed control at 500 g/ha [4]: 100%
Cc1cc(F)c(/N=C(/N(C)C)C(F)(F)F)cc1[S+]([O-])CC(F)(F)F (stereo not shown) [Ib-01, 2,2,2-Trifluoro-N′-{2-fluoro-4-methyl-5-[(2,2,2-trifluoroethyl)sulfinyl]phenyl}-N,N-dimethylethanimidamide]	–	–	–	–	–	–	chromatographic logP [1, 8]: 3.15; efficacy (laying of fertile eggs) (Boophilus microplus): 100%; pest or weed control at 0.02 mg [3]: 100%; pest or weed control at 500 g/ha [4]: 90%
Cc1cc(F)c(SCC(F)(F)F)cc1N=C(N)C(F)(F)F [Ia-17]	3.16	3.14	80	80	–	–	–
CNC(=Nc1ccc(C(F)(F)F)c(SCC(F)(F)F)c1)C(F)(F)F [Ia-19]	–	–	–	100	100	100	–
CNC(=Nc1cc([S+]([O-])CC(F)(F)F)c(C)cc1F)C(F)(F)F (stereo not shown) [Ib-07]	2.64	2.61	100	100	–	–	efficacy (laying of fertile eggs) [3]: 100%
Cc1cc(F)c([S+]([O-])CC(F)(F)F)cc1/N=C(/N)C(F)(F)F (stereo not shown) [Ib-13]	–	–	100	100	–	–	–
Cc1cc(F)c(N=C(N)C(F)F)cc1SCC(F)(F)F [Ia-03]	–	–	100	100	–	–	log P ([1]; pH 2.3): 2.2^[c]
Cc1cc(F)c(N=C(NC(C)C)C(F)(F)F)cc1SCC(F)(F)F [Ia-05]	4.51	4.52	100	100	100	100	–
CCNC(=Nc1cc(SCC(F)(F)F)c(C)cc1F)C(F)(F)F [Ia-18]	4.12^[a]; 4.12^[b]	4.12^[a]; 4.12^[b]	100	100	100	100	–
Cc1cc(F)c(N=C(NC2CC2)C(F)(F)F)cc1SCC(F)(F)F [Ia-26]	4.03	4.02	100	100	–	–	–
Cc1cc(F)c(/N=C(\N)C(F)(F)C(F)(F)F)cc1[S+]([O-])CC(F)(F)F (stereo not shown) [Ib-42]	–	–	–	–	–	–	effect (aphids killed) ([7]; application rate 100 g/ha): 80%; pest or weed control at 500 g/ha [4]: 100%

SMILES	logP(HCOOH) [1]	logP(neutral) [1]	efficacy (spider mites killed) [2] [%]	efficacy (spider mites killed) [4] [%]	efficacy (beetle larvae killed) [5] [%]	effect (beetle larvae killed) [6] [%]	further results
CN(C)/C(=N\c1cc([S+]([O-])CC(F)(F)F)c(Cl)cc1Cl)c1cccnc1 (stereo not shown) [Ib-123]	–	–	–	–	–	–	effect (aphids killed) ([7]; application rate 500 g/ha): 90%; pest or weed control at 500 g/ha [4]: 100%
CN/C(=N/c1ccc(C(F)(F)F)c([S+]([O-])CC(F)(F)F)c1)C(F)(F)F (stereo not shown) [Ib-10]	2.52	2.49	–	100	100	100	efficacy (laying of fertile eggs) (Boophilus microplus): 100%; efficacy (laying of fertile eggs) [3]: 100%
N/C(=N/c1cc([S+]([O-])CC(F)(F)F)c(Cl)cc1Cl)C(F)(F)F (stereo not shown) [Ib-14]	2.05	2.02	–	100	100	100	efficacy (laying of fertile eggs) (Boophilus microplus): 100%; efficacy (laying of fertile eggs) [3]: 100%
CNC(=Nc1cc(SCC(F)(F)F)c(C)cc1C)C(F)(F)F [Ia-12]	3.95	4.01	100	100	–	–	–
Cc1cc(F)c(N=C(NC(C)C)C(F)(F)F)cc1[S+]([O-])CC(F)(F)F (stereo not shown) [Ib-03]	–	–	100	100	–	–	efficacy (laying of fertile eggs) [3]: 100%
Cc1cc(F)c(/N=C(/NC2CC2)C(F)(F)F)cc1[S+]([O-])CC(F)(F)F (stereo not shown) [Ib-08]	2.68	2.67	100	100	–	–	–
N/C(=N/c1ccc(C(F)(F)F)c([S+]([O-])CC(F)(F)F)c1)C(F)(F)F (stereo not shown) [Ib-16]	2.2	2.19	–	100	100	100	efficacy (laying of fertile eggs) (Boophilus microplus): 100%; efficacy (laying of fertile eggs) [3]: 100%
CNC(=Nc1cc(SCC(F)(F)F)c(Cl)cc1Cl)C(F)(F)F [Ia-15]	4.2^[a]; 4.2^[b]	4.2^[a]; 4.2^[b]	100	100	100	100	–
Cc1cc(C)c(SCC(F)(F)F)cc1N=C(N(C)C)C(F)(F)F [Ia-23]	4.87^[a]; 4.87^[b]	4.87^[a]; 4.87^[b]	100	100	–	–	–
NC(=Nc1cc(SCC(F)(F)F)c(Cl)cc1Cl)C(F)(F)F [Ia-14]	–	–	–	100	100	100	–
Cc1cc(F)c(N=C(N)C(F)(F)C(F)(F)C(F)(F)C(F)(F)C(F)(F)C(F)F)cc1SCC(F)(F)F [Ia-22]	–	–	–	100	–	–	efficacy (laying of fertile eggs) (Boophilus microplus): 100%; efficacy (laying of fertile eggs) [3]: 100%
N/C(=N/c1ccc(Cl)c([S+]([O-])CC(F)(F)F)c1)C(F)(F)F (stereo not shown) [Ib-108, N′-{4-Chloro-3-[(2,2,2-trifluoroethyl)sulfinyl]phenyl}-2,2,2-trifluoroethanimidamide]	–	–	–	–	–	–	chromatographic logP [1, 8]: 2.25; chromatographic logP [1, 9]: 2.21; pest or weed control at 0.02 mg [3]: 100%; pest or weed control at 500 g/ha [4]: 100%; pest or weed control at 500 g/ha ([6]; Phaedon cochleariae, 168 h, read-out: effect (beetle larvae killed)): 83%
CNC(=Nc1cc(SCC(F)(F)F)c(F)cc1C)C(F)(F)F [Ia-09]	3.72	3.69	80	80	–	–	–
Cc1cc(F)c(/N=C(\NCC2CCCC(C(F)(F)F)C2)C2CC2)cc1SCC(F)(F)F (stereo not shown) [Ia-228]	–	–	–	–	–	–	effect (aphids killed) ([7]; application rate 500 g/ha): 100%; pest or weed control at 500 g/ha [4]: 90%
CCCNC(=Nc1cc(SCC(F)(F)F)c(C)cc1F)C(F)(F)F [Ia-02]	4.45	4.43	100	100	100	100	–
CNC(=Nc1cc([S+]([O-])CC(F)(F)F)c(C)cc1C)C(F)(F)F (stereo not shown) [Ib-04]	3.15	3.09	80	80	–	–	–
